pEC50, pIC50: −log10 of the molar value. Residues, ends and D or L forms follow the SMILES beside them. *: point of attachment. Cbz = O=C(OCc1ccccc1)*; CH2F = FC*
What follows are compounds tested on HL-60 and U-937 cell lines (assay: Caspase inhibitors on WF-208-induced early apoptosis (Annexin V/PI)). Conditions: 50 μM inhibitor, 10 μM WF-208, 24 hrs.
Assay type: cell-based, human
Experimental: Compounds were incubated with HL-60 and U-937 cells for 24 hrs. The cells were harvested and double-stained with FITC-Annexin V Apoptosis Detection Kit (BD Biosciences, San Jase, USA). Cells that positively stained with Annexin V and negatively stained with PI were considered to be early apoptotic.
For `COC(=O)C[C@H](NC(=O)[C@H](C)NC(=O)[C@@H](NC(=O)OCc1ccccc1)C(C)C)C(=O)CF` [Z-VAD-FMK] (Cbz-Val-Ala-Asp(OMe)-CH2F), the “effect of inhibitor on WF-208-induced early apoptosis” value (“effect of inhibitor” for short) was “abolish”.
`COC(=O)CC[C@H](NC(=O)[C@H](CC(=O)OC)NC(=O)OCc1ccccc1)C(=O)N[C@H](C(=O)N[C@@H](CC(=O)OC)C(=O)CF)C(C)C` [Z-DEVD-FMK] was tested, and the “effect of inhibitor” value was “abolish”.
In the case of `COC(=O)CC[C@H](NC(=O)[C@H](CC(C)C)NC(=O)OCc1ccccc1)C(=O)N[C@@H](Cc1cnc[nH]1)C(=O)N[C@@H](CC(=O)OC)C(=O)CF` [Z-LEHD-FMK] (Cbz-LE(OMe)HD(OMe)-CH2F), the “effect of inhibitor” value was “partly inhibit”.

The compounds below were run on HL-60 and U-937 cell lines (assay: Western blot of Bcl-2 family and IAP proteins in HL-60 and U-937). Conditions: 5 μM MG132 co-treated with 10 μM WF-208, 24 hrs.
Assay type: cell-based, human
Experimental: Approximately 1 × 10^7 HL-60 cells were gathered after pre-treatment with PAC-1 and WF-208 as previously described. The tumour tissue protein was purified according to the reported methods. Western blotting was performed as previously described. All antibodies were purchased from Cell Signaling Technology. In brief, an equal amount of total protein extracts from cultured cells or tissues were fractionated by 10–15% SDS-PAGE and electrically transferred onto polyvinylidene difluoride (PVDF) membranes. Different primary antibodies and corresponding horseradish peroxidase-conjugated secondary antibodies were used to detect the proteins. The bound secondary antibodies on the PVDF membrane were reacted with ECL™ Western Blotting Reagents detection reagents (Thermo Fisher, Rockford, USA) and exposed to X-ray films. Results were normalized to the internal control β-actin.
For `CC(C)C[C@@H](C=O)NC(=O)[C@H](CC(C)C)NC(=O)[C@H](CC(C)C)NC(=O)OCc1ccccc1` [MG132, reference compound] (Cbz-Leu-Leu-Leu-aldehyde), the “effect on down-regulation of XIAP and survivin induced by WF-208” value was “blocked the down-regulation”.

Each compound was assayed on mouse primary cortical cell (assay: Cytotoxicity in mouse primary cortical neuron cells). Conditions: neurotoxicity.
Assay type: cell-based
Experimental: (§1) The cell viability effects of the tested compounds were determined by MTT assay. Cells (1 × 10^4 cells/100 μl/well) were seeded into 96-well culture plates. After overnight incubation, cells were treated with various concentrations of compounds for 72 hrs. Subsequently, 10 μl MTT solution (2.5 mg/ml in PBS) was added to each well, than the cells were incubated for an additional 3–4 hrs at 37°C. After centrifugation (200 × g, 10 min.), the medium with MTT was aspirated, followed by the addition of 100 μl DMSO. The optical density of each well was measured at 570 nm with a Biotek Synergy TM HT Reader.
For `C=CCc1cccc(/C=N/NC(=O)CN2CCN(Cc3ccccc3)CC2)c1O` [PAC-1], the pIC50 was 4.30.

What follows are compounds tested against T1, rh-procaspase-3 (Homo sapiens, UniProt P42574) (assay: Caspase-3 activation assay (procaspase-3 activation in vitro)). Conditions: rh-procaspase-3, concentrations 0.08–100 μM.
T1 construct: purchased R&D System (Minneapolis, USA)
T1 sequence (P42574 1-277): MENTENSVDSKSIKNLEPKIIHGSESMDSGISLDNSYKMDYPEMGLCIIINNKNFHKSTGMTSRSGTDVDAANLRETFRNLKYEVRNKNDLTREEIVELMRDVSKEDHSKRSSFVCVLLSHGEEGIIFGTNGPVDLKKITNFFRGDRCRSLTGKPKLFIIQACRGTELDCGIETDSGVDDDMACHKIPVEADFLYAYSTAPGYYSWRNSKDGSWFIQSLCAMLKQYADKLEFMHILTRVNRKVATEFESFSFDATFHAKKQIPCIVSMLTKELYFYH
Assay type: biochemical
Experimental: Procaspase-3 protein was purchased from R&D System (Minneapolis, USA). Procaspase-3 protein was added into 384-well plates. Tested compounds (or DMSO as control) were then added to achieve a final concentration of procaspase-3 of 50 ng/ml. Each plate was incubated for 2 hrs at 37°C. Then caspase-3 peptide substrate (acetyl Asp-Glu-Val-Asp-[…] (Ac-DEVD-pNa), 200 μM) were added. The absorbance of each well was measured at 405 nm in kinetic mode for 10 min [13].
With `C=CCc1cccc(/C=N/NC(=O)CN2CCN(Cc3ccccc3)CC2)c1O` [PAC-1] the pEC50 was 5.22.

What follows are compounds tested on HL-60 cell line (assay: MTT cell viability assay, HL-60). Conditions: Homo sapiens, 72 hrs.
Assay type: cell-based
Experimental: as §1
For `O=C(CN1CCN(Cc2nc(-c3ccc(COc4ccc(F)c(F)c4)cc3)no2)CC1)N/N=C/c1ccc(OCc2ccc(Cl)cc2Cl)cc1O` [B9], the IC50 was 0.41 µM.
For `C=CCc1cccc(/C=N/NC(=O)CN2CCN(Cc3nc(-c4ccc(COc5ccc(F)cc5)cc4)no3)CC2)c1O` [A2], the IC50 was 0.39 µM.
In the case of `O=C(CN1CCN(Cc2nc(-c3ccc(COc4ccc(Cl)cc4)cc3)no2)CC1)N/N=C/c1ccc(OCc2ccccc2)cc1O` [B1], the IC50 was 1.26 µM.
In the case of `C=CCc1cccc(/C=N/NC(=O)CN2CCN(Cc3nc(-c4ccc(COc5ccccc5C(F)(F)F)cc4)no3)CC2)c1O` [A4], the IC50 was 0.35 µM.
`CC(C)(C)c1ccc(COc2ccc(/C=N/NC(=O)CN3CCN(Cc4nc(-c5ccc(COc6ccccc6C(F)(F)F)cc5)no4)CC3)c(O)c2)cc1` [B10] showed an IC50 of 0.4 µM.
`O=C(CN1CCN(Cc2nc(-c3ccc(COc4ccc(Cl)cc4)cc3)no2)CC1)N/N=C/c1ccc(OCc2cccc(Cl)c2)cc1O` [B12] gave an IC50 greater than 20 µM.
Work on `O=C(CN1CCN(Cc2nc(-c3ccc(COc4ccc(F)cc4)cc3)no2)CC1)N/N=C/c1ccc(OCc2cccc(C(F)(F)F)c2)cc1O` [B3] yielded an IC50 of 0.98 µM.
In the case of `C=CCc1cccc(/C=N/NC(=O)CN2CCN(Cc3nc(-c4ccc(COc5ccc(Cl)cc5)cc4)no3)CC2)c1O` [A1], the IC50 was 0.25 µM.
`O=C(CN1CCN(Cc2nc(-c3ccc(COc4ccc(Cl)cc4)cc3)no2)CC1)N/N=C/c1ccc(OCc2ccc(Cl)cc2Cl)cc1O` [B5] gave an IC50 of 1.07 µM.
For `O=C(CN1CCN(Cc2nc(-c3ccc(COc4ccccc4C(F)(F)F)cc3)no2)CC1)N/N=C/c1ccc(OCc2cccc(F)c2)cc1O` [B11], the IC50 was 1.93 µM.
`O=C(CN1CCN(Cc2nc(-c3ccc(COc4ccccc4C(F)(F)F)cc3)no2)CC1)N/N=C/c1ccc(OCc2csc(Cc3ccc4c(c3)OCO4)n2)cc1O` [C1] showed an IC50 of 1.08 µM.
`CC(C)(C)c1ccc(COc2ccc(/C=N/NC(=O)CN3CCN(Cc4nc(-c5ccc(COc6ccc(Cl)cc6)cc5)no4)CC3)c(O)c2)cc1` [B4] showed an IC50 of 0.67 µM.
`O=C(CN1CCN(Cc2nc(-c3ccc(COc4ccc(F)cc4)cc3)no2)CC1)N/N=C/c1ccc(OCc2ccc(Cl)cc2Cl)cc1O` [B2] showed an IC50 of 1.02 µM.
With `CC(C)(C)c1ccc(COc2ccc(/C=N/NC(=O)CN3CCN(Cc4nc(-c5ccc(COc6ccc(F)cc6)cc5)no4)CC3)c(O)c2)cc1` [B6] the IC50 was 0.6 µM.
With `C=CCc1cccc(/C=N/NC(=O)CN2CCN(Cc3nc(-c4ccc(COc5cccc(Cl)c5)cc4)no3)CC2)c1O` [A3] the IC50 was 0.4 µM.
`O=C(CN1CCN(Cc2nc(-c3ccc(COc4ccc(F)c(F)c4)cc3)no2)CC1)N/N=C/c1ccc(OCc2ccccc2)cc1O` [B7] gave an IC50 of 0.34 µM.
For `C=CCc1cccc(/C=N/NC(=O)CN2CCN(Cc3ccccc3)CC2)c1O` [PAC-1], the IC50 was 2.1 µM.
Work on `O=C(CN1CCN(Cc2nc(-c3ccc(COc4ccc(F)c(F)c4)cc3)no2)CC1)N/N=C/c1ccc(OCc2ccc(Cl)cc2)cc1O` [B8] yielded an IC50 of 0.3 µM.

These compounds were tested on PC-3 xenograft (assay: Human prostatic carcinoma PC-3 xenograft mouse model). Conditions: 2.5 mg/kg i.v., 15 days.
Assay type: in vivo
Experimental: To determine the anti-tumour activity of WF-208 in vivo, viable human prostate cancer PC-3 cells (5 × 10^6/100 μl PBS per mouse) were subcutaneously (s.c.) injected into the right flank of 7- to 8-week old male SCID mice. When the average tumour volume reached 100 mm^3, mice were randomly divided into various treatment and control group (eight mice per group). Tumour size was measured once every 2 days with a calliper (calculated volume = shortest diameter^2 × longest diameter/2). Body weight, diet consumption and tumour size were recorded once every 2 days. After 2 weeks, mice were killed and tumours were excised and stored at −80°C until further analysis.
In the case of `C=CCc1cccc(/C=N/NC(=O)CN2CCN(Cc3ccccc3)CC2)c1O` [PAC-1], the “influence on body weight” value was “minimal influence” and the “tumour volume compared with control group” value was “no significantly difference”.

Source: publication PMC4549042, “Targeting procaspase-3 with WF-208, a novel PAC-1 derivative, causes selective cancer cell apoptosis” (Journal of Cellular and Molecular Medicine, 2015)
